Laboratory results: the NIST ThermoML archive (doi:10.1016/j.jct.2009.10.002)

Assay: mn = molality of the nth substance listed, in mol/kg
Settings: 298.15 K, 101 kPa, Liquid, Vibrating tube method

CC(=O)Nc1ccccc1C(=O)O [2-acetamidobenzoic acid] + CCCCCCCCO
Settings	mass density [kg/m3]
m1 = 0.004871	822.31
m1 = 0.008993	822.47
m1 = 0.01189	822.58
m1 = 0.01818	822.82
m1 = 0.02358	823.02
m1 = 0.03392	823.42
m1 = 0.05837	824.35
m1 = 0.0873	825.4
m1 = 0.1273	826.83
m1 = 0.1682	828.43

NC(=O)c1ccccc1O [2-hydroxybenzamide] + CCCCCCCCO
Settings	mass density [kg/m3]
m1 = 0.002458	822.19
m1 = 0.003905	822.23
m1 = 0.0061	822.31
m1 = 0.007816	822.37
m1 = 0.01182	822.51
m1 = 0.02311	822.87
m1 = 0.03084	823.13
m1 = 0.03859	823.39
m1 = 0.05387	823.86
m1 = 0.08947	825.16

CC(=O)Nc1cccc(C(=O)O)c1 [3-(acetylamino)benzoic acid] + CCCCCCCCO
Settings	mass density [kg/m3]
m1 = 0.000244	822.13
m1 = 0.000488	822.14
m1 = 0.000973	822.17
m1 = 0.001081	822.17
m1 = 0.001283	822.18
m1 = 0.001361	822.19
m1 = 0.001375	822.19
m1 = 0.001452	822.19
m1 = 0.001582	822.2
m1 = 0.002358	822.23
m1 = 0.003857	822.28
m1 = 0.006025	822.36
m1 = 0.007586	822.43
m1 = 0.009397	822.51
m1 = 0.0109	822.57
m1 = 0.01161	822.6
m1 = 0.01355	822.68
m1 = 0.01453	822.72

CC(=O)Nc1cccc(O)c1 [3-acetamidophenol] + CCCCCCCCO
Settings	mass density [kg/m3]
m1 = 0.002796	822.21
m1 = 0.006909	822.37
m1 = 0.008394	822.43
m1 = 0.01356	822.62
m1 = 0.02056	822.89
m1 = 0.04126	823.67
m1 = 0.08892	825.48
m1 = 0.1451	827.61
m1 = 0.1875	829.24
m1 = 0.2708	832.45

NC(=O)c1cccc(O)c1 [3-hydroxy-benzamide] + CCCCCCCCO
Settings	mass density [kg/m3]
m1 = 0.001492	822.16
m1 = 0.002531	822.2
m1 = 0.003737	822.25
m1 = 0.006435	822.38
m1 = 0.007522	822.43
m1 = 0.01163	822.62
m1 = 0.02156	823.03
m1 = 0.03239	823.51
m1 = 0.04091	823.88
m1 = 0.05285	824.43
m1 = 0.07208	825.26
m1 = 0.08749	825.95

CC(=O)Nc1ccc(C(=O)O)cc1 [4-acetamidobenzoic acid] + CCCCCCCCO
Settings	mass density [kg/m3]
m1 = 0.000708	822.14
m1 = 0.00077	822.15
m1 = 0.000914	822.16
m1 = 0.001192	822.17
m1 = 0.001367	822.18
m1 = 0.002266	822.23
m1 = 0.002865	822.26
m1 = 0.002919	822.26
m1 = 0.003657	822.3
m1 = 0.005744	822.42
m1 = 0.01212	822.76
m1 = 0.01816	823.12
m1 = 0.02407	823.47
m1 = 0.0284	823.73
m1 = 0.03621	824.17

NC(=O)c1ccc(O)cc1 [4-hydroxybenzamide] + CCCCCCCCO
Settings	mass density [kg/m3]
m1 = 0.002127	822.18
m1 = 0.005332	822.31
m1 = 0.005725	822.34
m1 = 0.007571	822.43
m1 = 0.01115	822.59
m1 = 0.01722	822.85
m1 = 0.02131	822.99
m1 = 0.02267	823.06
m1 = 0.02734	823.25
m1 = 0.02874	823.32
m1 = 0.038	823.71
m1 = 0.05733	824.52
m1 = 0.0819	825.53
m1 = 0.09825	826.23
m1 = 0.1209	827.18
m1 = 0.1408	828.01
m1 = 0.1856	829.93
